“Also recorded” adds a separate entry of the source. Where no end group is shown, it is not given here.
Assays:
[1] = tested on: IP3R; experiment: [3H]IP3 binding assay and Scatchard analysis, cardiac muscle microsomes; set-up: species or system mouse; settings: for Kd: n=5
Method: IP3 Binding Experiments. Cardiac membranes were prepared and labeled with increasing concentrations (5–40 nM) of [^3H] IP3 (Amersham) essentially as described (Perez et al, J. Biol. Chem. 272:23961 1997)). Assays were performed in triplicate, and at each IP3 concentration, non-specific binding was assessed in the presence of 1 μM unlabeled IP3 (ICN).

[2] = tested on: AnkB+/− and +/+ mice
Source text: Sudden cardiac death in humans with the E1425G mutation occurred secondary to physical exertion and emotional stress (FIG. 28)3. An attempt was made to mimic these circumstances in mice with exercise followed by injection with epinephrine.

[3] = tested on: wildtype and ankyrin-B (+/−) mice; experiment: Heart rate by ECG radiotelemetry in conscious mice after drug injection; assay type: in vivo, mouse; settings: for heart rate response to endothelin-1: 300 ng/kg
Method: (§1) EKG recordings. EKG recordings were obtained using a radiotelemetry apparatus (DSI). Transmitters were implanted and the mice recovered for 5 days prior to recordings. EKG traces were analyzed using Data Quest analysis software 2.1 (DSI). P wave duration, PR interval, RR interval, QRS interval and QT interval were all calculated according to established methods. The rate corrected QT interval (QTc) was calculated from the relationship QTc=QT/(RR)^1/2 Following a 15-hour fast, blood glucose levels were measured (OneTouch Ultra; Lifescan) before and up to 120 min after an intraperitoneal injection of either PBS, glucose (2 g/kg) or insulin (5 units/kg; Eli Lilly) (Ludwig et al, J. Clin. Invest. 107:379–386 (2001)).
To test ankyrin-B heterozygous mice for potential defects in Gαq signaling, ECG radiotransmitter implants were implanted in the abdomen of ankyrin-B (+/−) mice as well as wildtype littermate controls. These probes allow the recording of real time ECG and thus heart rate recordings in conscious, non-anethestized mice. 24 hour recordings of wildtype mice compared to heterozygote animals show overall bradycardia in the heterozygote (FIG. 9).

[4] = tested on: adult AnkB+/− and control ventricular cardiomyocytes; experiment: Action potential recordings in isolated adult ventricular cardiomyocytes with isoproterenol; assay type: cell-based, mouse; settings: for extrasystoles in action potentials after acute isoproterenol: isoproterenol (1 μM); for myocytes with DADs and EADs: isoproterenol
Method: Patch clamp methods. AnkB+/− and +/+ animals (1–3 months of age) were sacrificed by IP injection of pentobarbital sodium (100 mg/kg). Single myocytes were isolated (Santana et al, J. Physiol. 503:21 (1997)). Axopatch-200A or -200B amplifier (Axon Instruments) was used to measure membrane currents (Santana et al, J. Physiol. 503:21(1997), Santana et al, Science 279:1027 (1998)). Patch pipette (1–3 MOhm) solution (mM): CsCl (130); NaCl (10); MgATP (5); Hepes (10), MgCl2 (1) PH 7.2 (with CsOH). Superfusion solution 1: (mM) NaCl (140), KCl (5) MgCl2 (0.5), CaCl2 (1.8), NaH2PO4 (0.33), glucose (5.5) and HEPES (5); pH 7.4 at 35–37° C. Solution 2 was same as solution 1 but with CsCl substituted for KCl. After conversion to whole cell, voltage clamp in solution (1), solution (2) was used to measure ICa. Test depolarizations followed four 50 ms depolarizations to 0 mV at 1 Hz. A 500 ms ramp-depolarization from […] to 40 mV was followed by a 50 ms period at 40 mV before test depolarizations.
AP recordings. Myocytes were superfused with Solution 1. β adrenergic stimulation of cells produced by the addition of 1 μM isoproterenol to solution 1. Pipette filling solution as above, except KCl was substituted for CsCl (pH 7.2 with KOH). Axopatch 200A was used in current clamp mode to record AP. Current injections triggered AP at constant rate (1 Hz, 5 Hz). All experiments were performed at 37° C.

[5] = tested on: Na/K ATPase; experiment: [3H]ouabain binding to adult cardiac microsomes; set-up: species or system mouse
Source text: Na/K ATPase, Na/Ca exchanger (NCX) and IP3R are candidate ankyrin-binding proteins based on biochemical data (Bennett et al, Physiol. Rev. 81:1353 (2001)) that are localized at T-tubules (Frank et al, in The Myocardium (ed. Langer, G A) 1–32 (Academic Press, San Diego, Calif., 1997)). Ankyrin-B co-immunoprecipitates with NCX1, α1 and α2 ATPase, and IP3R from extracts of heart tissue (FIG. 30B), but not with other cardiomyocyte proteins (including DHPR, SERCA2, and calsequestrin). Levels of IP3R (pan IP3R), α1 and α2 Na/K ATPase subunits, and NCX in isolated adult cardiomyocytes are reduced by 15–33% in AnkB+/− cardiomyocytes by immunoblots (FIG. 30C). Measurements of binding of [^3H] […] In contrast, by quantitative western blot analysis, protein levels of ER/SR components (SERCA2, calreticulin, calsequestrin), K+ channels or associated subunits (KCNQ1/KvLQT1, ERG1, MinK/IsK, Kir2.1/IRK1, Kir2.3/IRK3), RyR2, plasma membrane Ca^+2 channels (DHPR, PMCA2), and structural proteins (α-actinin, dystrophin) are unaffected (FIG. 30C).

[6] = tested on: (+/+) and AnkB (+/−) mice; experiment: Insulin-tolerance test, blood glucose; assay type: in vivo, mouse; settings: 5 units/kg intraperitoneal, 120 min
Method: as §1

Q: What does the source list for `O=P(O)(O)O[C@@H]1[C@H](O)[C@H](O)[C@@H](OP(=O)(O)O)[C@H](OP(=O)(O)O)[C@H]1O` [IP3, inositol 1,4,5-triphosphate]?
A: Bmax, IP3 binding capacity ([1]; (+/+) cardiac muscle): 0.083 pmol/mg; Kd ([1]; (+/+) cardiac muscle): 24 nM; Bmax, IP3 binding capacity ([1]; AnkB (+/−) cardiac muscle): 0.056 pmol/mg; Kd ([1]; AnkB (+/−) cardiac muscle): 25 nM; reduction in IP3 binding capacity ([1]; AnkB (+/−) vs wildtype heart): 33%; affinity for ligand, AnkB+/− vs +/+ ([1]; adult cardiac microsomes): unchanged

Q: What does the source list for `CNC[C@H](O)c1ccc(O)c(O)c1` [epinephrine]?
A: mice that became unresponsive or died ([2]; +/+ mice): 0/6; mice that died following exercise combined with epinephrine ([2]; AnkB+/− mice): 8/14; time to polymorphic ventricular arrhythmias after EPI ([2]; AnkB+/− mouse, exercise and epinephrine): ~17 min

Q: How did the “heart rate response to isoproterenol” value ([3]; wildtype and ankyrin-B (+/−) mice, 50 mg/kg) turn out when `CC(C)NCC(O)c1ccc(O)c(O)c1` (stereo not drawn) [isoproterenol] was run?
A: responsed equally

Q: And the “extrasystoles in action potentials after acute isoproterenol” value ([4]; AnkB+/− cardiomyocytes)?
A: developed spontaneous extrasystoles at both 1 and 5 Hz

Q: What about the “myocytes with DADs and EADs” value ([4]; AnkB+/− myocytes, 1 and 5 Hz) of the same compound?
A: 36%

Q: What about the “extrasystoles in action potentials after acute isoproterenol” value ([4]; control cells) of the same compound?
A: did not

Q: And the “myocytes with DADs and EADs” value ([4]; control myocytes)?
A: no control myocytes

Q: Which results are given for `C[C@@H]1O[C@@H](O[C@H]2C[C@@H](O)[C@]3(CO)[C@H]4[C@H](O)C[C@]5(C)[C@@H](C6=CC(=O)OC6)CC[C@]5(O)[C@@H]4CC[C@]3(O)C2)[C@H](O)[C@H](O)[C@H]1O` [ouabain]?
A: reduction in [3H]ouabain binding capacity ([5]; AnkB+/− heart vs +/+): 16%; affinity for ligand, AnkB+/− vs +/+ ([5]; adult cardiac microsomes): unchanged

Q: `CNC[C@H](O)c1cccc(O)c1` [phenylephrine] was tested. Which “heart rate response to phenylephrine” value ([3]; ankyrin-B (+/−) mice, 3 mg/kg) did it give?
A: significant decreased heart rate sensitivity; also recorded: does not reach the same minimum levels as the wildtype

Q: And the “maximal decrease in heart rate after phenylephrine during beta blockade” value ([3]; ankyrin-B heterozygous mice, propanolol injected prior to phenylephrine)?
A: ~50 % of the wildtype response

Q: What about the “heart rate response to phenylephrine” value ([3]; wildtype mice, 3 mg/kg intraperitoneal) of the same compound?
A: rapid decrease in heart rate

Q: `CC(C)NCC(O)COc1cccc2ccccc12` (stereo not drawn) [propanolol] was tested. Which “heart rate response to propanolol” value ([3]; wildtype and ankyrin-B heterozygote mice) did it give?
A: typical decreases in heart rate which were not significantly different

Q: With “endothelin-1 (CSCSSLMDKECVYFCHLDIIW; ends and bridges not checked; cysteine pairing not given here; UniProt P05305 53-73, looked up) [signals via a Gαq-coupled receptor]” as the compound, how does the “heart rate response to endothelin-1” value ([3]; ankyrin-B (+/−) mice) read?
A: significantly reduced; also recorded: does not reach the same levels as the wildtype

Q: What about the “heart rate response to endothelin-1” value ([3]; wildtype animals) of the same compound?
A: significant decrease in heart rate

Q: How did the “blood glucose after insulin injection” value ([6]; (+/+) mice) turn out when insulin was run?
A: decline following the insulin injection and return to near normal levels by the end of the 120 min period

Q: What about the “blood glucose after insulin injection” value ([6]; AnkB (+/−) mice) of the same compound?
A: significant reduction in blood glucose levels

Reference: US7144706B2, “Methods of modulating localization and physiological function of IP3 receptors” (Duke University, priority 2002, dated 2006)
